Laboratory results as given in patent publication US20090232867A1, “Modified conductive surfaces having active substances attached thereto” (Elutex Ltd., priority 2004, published 2009).

Legend:
[1] = Paclitaxel release from pyrrole-functionalized PLA nanoparticles in 0.1N phosphate buffer; type: physicochemical; conditions: immersed in 0.1N phosphate buffer solution
Method: In a representative example, nanoparticles were prepared by dispersing a chloroform solution of a pyrrole polymer prepared as described hereinabove (0.1 gram), polylactic acid (0.4 grams, Mn=3,000) and paclitaxel (0.15 gram) in de-ionized water at room temperature with constant stirring.

[2] = Paclitaxel release from coated stent or plate into phosphate buffer pH 7.4 with 0.3% SDS, HPLC; type: physicochemical; conditions: stents/plates coated with polypyrrole derivatives
Method: The release characteristic of the stent or plate was determined by placing drug-loaded device into buffer phosphate solution, pH 7.4, which contained 0.3% SDS, to increase the solubility of paclitaxel, and the daily release was determined by HPLC.

- absorbed drug released into the buffer medium ([2]; after 3 days): about 50%
- duration of slow release of the remaining drug [2]: over 3 weeks
SMILES: CC(=O)O[C@H]1C(=O)[C@@]2(C)[C@H]([C@H](OC(=O)c3ccccc3)[C@]3(O)C[C@H](OC(=O)[C@H](O)[C@@H](NC(=O)c4ccccc4)c4ccccc4)C(C)=C1C3(C)C)[C@]1(OC(C)=O)CO[C@@H]1C[C@@H]2O [paclitaxel]
- release of paclitaxel from nanoparticles [1]: released constantly from these particles during two weeks
